# Test system: Human keratinocytes (HatKat)
# Test: Growth of keratinocytes, cell count in Coulter counter after three days
# Assay type: cell-based
# Experimental: Human keratinocytes (HatKat) were grown in keratinocyte growth medium (TCS Cellworks Ltd.) until 20% confluence. Then, in the same medium, the keratinocytes were grown for three days with 0.5% foetal calf serum (FCS), at which point the cells were counted in a Coulter® counter. The cell numbers obtained are set out in Table 3 below.
substance,measurement,setting,value
"EGF: epidermal growth factor, comparator growth factor in keratinocyte growth test",increase in the growth of keratinocytes (in words),10 ng/mi EGF versus medium with 0.5% FCS,relatively modest increase
same,Number of cells,"Medium with 0.5% FCS + 10 ng/ml EGF, three days","29,356"

# From patent publication US20040014653A1, “Peptide composition” (priority 2000, published 2004)
